Results: article PMC8803738, “Impact of the mouse model and molar amount of injected ligand on the tissue distribution profile of PSMA radioligands” (European Journal of Nuclear Medicine and Molecular Imaging, 2021)
Where two headings read alike, the source gives them in different places.

How the values were obtained:
[1] = test system: PC-3 PIP/flu tumor-bearing mice; details: PC-3 PIP model, 1.0 nmol, ref Deberle et al. [21], cited from earlier work
LNCaP tumor-bearing mice = assay: Biodistribution in LNCaP tumor-bearing mice; details: for AUCTu(0→48 h)-to-AUCKi(0→48 h) ratio: LNCaP model (male mice); for AUCTu(0→48 h)-to-AUCKi(0→48 h) ratio / AUC0→48h, Kidneys / AUC0→48h, LNCaP tumor: average ± SE, non-decay-corrected
[2] = LNCaP model, 4 h p.i., 0.05 nmol

Experimental for LNCaP tumor cells: The cells were cultured in RPMI-1640 cell culture medium supplemented with 10% fetal calf serum, L-glutamine, and antibiotics. Puromycin (2 μg/mL) was used to maintain PSMA expression as previously reported [24]. […] The cells were cultured under standard cell culture conditions in RPMI-1640 medium supplemented with 10% fetal calf serum, L-glutamine, antibiotics, and pyruvate (1 mM).
In brief, PC-3 PIP and LNCaP tumor cells were seeded in 12-well plates (3 × 10^5 cells and 1 × 10^6 cells in 2 mL medium/well, respectively) and incubated overnight. Both PSMA radioligands were applied at variable molar concentrations (0.75–500 nM) but at a constant activity concentration of 37.5 kBq/mL. The tumor cells were incubated for 4 h followed by washing steps and detachment of the cells for counting in a γ-counter (Perkin Elmer, Wallac Wizard 1480). The studies were performed in three independent experiments of six replicates. Statistical analysis was performed using a two-way ANOVA with Tukey’s and Sidak’s multiple comparison post-test in Graph Pad Prism (version 8) for different concentrations of the same radioligand and for the two radioligands at the same concentration, respectively. A p value of < 0.05 was considered statistically significant.
Both tumor cell types were kept in a humidified atmosphere at 37 °C and 5% CO2. Routine cell culture
was performed twice a week using PBS/EDTA (2 mM) and trypsin for cell detachment.
internalization of the radioligands into PC-3 PIP and LNCaP tumor cells.
Methods: Uptake and internalization studies were performed with PC-3 PIP and LNCaP tumor cells
using variable concentrations of the respective ligand but constant activity concentrations. PC-3 PIP
and LNCaP cells were seeded in 12-well plates and incubated at 37 °C and 5% CO2 overnight.
Experiments with LNCaP cells were performed with poly -L-lysine-coated well plates to ensure better
cell adherence. The radioligand solution was diluted using saline containing 0.05% bovine serum
albumin (BSA) to avoid adherence to the vial. A defined volume of 25 µL (corresponding to 37.5 kBq)
of this solution was added to the cell monolayers after the addition of 975 µL cell culture medium
without supplements. The final molar concentrations in each well ranged from 0.75 nM to 500 nM.
After incubation of the cells for 4 h, several washing steps were performed using PBS for determination

With `CC(C)Cc1ccc(C(C)C(=O)NC(CCN)C(=O)NCCCCC(NC(=O)CN2CCN(CC(=O)O)CCN(CC(=O)O)CCN(CC(=O)O)CC2)C(=O)NCC2CCC(C(=O)NC(Cc3ccc4ccccc4c3)C(=O)NCCCCC(NC(=O)NC(CCC(=O)O)C(=O)O)C(=O)O)CC2)cc1` (stereo not shown) [[^177Lu]Lu-Ibu-DAB-PSMA, metal not drawn] the “Absolute amount of internalized radioligand” value (LNCaP tumor cells; 0.00075 µM) was 14–21 % of total added activity, the Internalized fraction (LNCaP tumor cells; 4 h) was > 60 % of total uptake and the Cell uptake (LNCaP tumor cells; 4 h, 0.00075 µM) was ~ 34%. The Cell uptake (LNCaP tumor cells; 4 h, 0.0075 µM) was ~ 16%, the Cell uptake (LNCaP tumor cells; 4 h, 0.025 µM) was ~ 6% and the Cell uptake (LNCaP tumor cells; 4 h, 0.5 µM) was less than 1%. For the same molecule, the “Tissue distribution, Blood” value ([1]; 4 h p.i.) was 3.7 ± 0.5 % IA/g, the “Tissue distribution, Bone” value ([1]; 4 h p.i.) was 0.62 ± 0.08 % IA/g and the “Tissue distribution, Heart” value ([1]; 4 h p.i.) was 1.3 ± 0.1 % IA/g. For the same molecule, the “Tissue distribution, Intestines” value ([1]; 4 h p.i.) was 0.71 ± 0.05 % IA/g, the “Tissue distribution, Kidneys” value ([1]; 4 h p.i.) was 19 ± 2 % IA/g and the “Tissue distribution, Liver” value ([1]; 4 h p.i.) was 1.5 ± 0.1 % IA/g. The “Tissue distribution, Lung” value ([1]; 4 h p.i.) was 2.4 ± 0.3 % IA/g, the “Tissue distribution, Muscle” value ([1]; 4 h p.i.) was 0.54 ± 0.09 % IA/g and the “Tissue distribution, PC-3 PIP tumor” value ([1]; 4 h p.i.) was 66 ± 11 % IA/g. For the same molecule, the “Tissue distribution, PC-3 flu tumor” value ([1]; 4 h p.i.) was 1.2 ± 0.3 % IA/g, the “Tissue distribution, Salivary glands” value ([1]; 4 h p.i.) was 0.86 ± 0.38 % IA/g and the “Tissue distribution, Spleen” value ([1]; 4 h p.i.) was 1.1 ± 0.1 % IA/g. The “Tissue distribution, Stomach” value ([1]; 4 h p.i.) was 0.62 ± 0.12 % IA/g, the Tumor-to-blood ratio ([1]; 4 h p.i.) was 18 ± 3 and the Tumor-to-kidney ratio ([1]; 4 h p.i.) was 3.0 ± 0.5. The Tumor-to-liver ratio ([1]; 4 h p.i.) was 45 ± 8, the “Tissue distribution, Blood” value ([1]; 24 h p.i.) was 0.16 ± 0.02 % IA/g and the “Tissue distribution, Bone” value ([1]; 24 h p.i.) was less than 0.10 % IA/g. For the same molecule, the “Tissue distribution, Heart” value ([1]; 24 h p.i.) was 0.10 ± 0.01 % IA/g, the “Tissue distribution, Intestines” value ([1]; 24 h p.i.) was 0.11 ± 0.03 % IA/g and the “Tissue distribution, Kidneys” value ([1]; 24 h p.i.) was 6.0 ± 0.7 % IA/g. For the same molecule, the “Tissue distribution, Liver” value ([1]; 24 h p.i.) was 0.56 ± 0.10 % IA/g, the “Tissue distribution, Lung” value ([1]; 24 h p.i.) was 0.21 ± 0.03 % IA/g and the “Tissue distribution, Muscle” value ([1]; 24 h p.i.) was 0.05 ± 0.01 % IA/g. The “Tissue distribution, PC-3 PIP tumor” value ([1]; 24 h p.i.) was 52 ± 3 % IA/g, the “Tissue distribution, PC-3 flu tumor” value ([1]; 24 h p.i.) was 0.17 ± 0.01 % IA/g and the “Tissue distribution, Salivary glands” value ([1]; 24 h p.i.) was 0.56 ± 0.37 % IA/g. The “Tissue distribution, Spleen” value ([1]; 24 h p.i.) was 0.32 ± 0.03 % IA/g, the “Tissue distribution, Stomach” value ([1]; 24 h p.i.) was 0.18 ± 0.13 % IA/g and the Tumor-to-blood ratio ([1]; 24 h p.i.) was 337 ± 40. The Tumor-to-kidney ratio ([1]; 24 h p.i.) was 8.9 ± 1.0, the Tumor-to-liver ratio ([1]; 24 h p.i.) was 98 ± 21 and the “Tissue distribution, Blood” value ([1]; 48 h p.i.) was 0.10 ± 0.04 % IA/g. For the same molecule, the “Tissue distribution, Bone” value ([1]; 48 h p.i.) was less than 0.10 % IA/g, the “Tissue distribution, Heart” value ([1]; 48 h p.i.) was less than 0.10 % IA/g and the “Tissue distribution, Intestines” value ([1]; 48 h p.i.) was less than 0.10 % IA/g. The “Tissue distribution, Kidneys” value ([1]; 48 h p.i.) was 4.1 ± 0.8 % IA/g, the “Tissue distribution, Liver” value ([1]; 48 h p.i.) was 0.49 ± 0.08 % IA/g and the “Tissue distribution, Lung” value ([1]; 48 h p.i.) was 0.14 ± 0.04 % IA/g. The “Tissue distribution, Muscle” value ([1]; 48 h p.i.) was less than 0.10 % IA/g, the “Tissue distribution, PC-3 PIP tumor” value ([1]; 48 h p.i.) was 36 ± 10 % IA/g and the “Tissue distribution, PC-3 flu tumor” value ([1]; 48 h p.i.) was 0.15 ± 0.04 % IA/g. The “Tissue distribution, Salivary glands” value ([1]; 48 h p.i.) was less than 0.10 % IA/g, the “Tissue distribution, Spleen” value ([1]; 48 h p.i.) was 0.26 ± 0.08 % IA/g and the “Tissue distribution, Stomach” value ([1]; 48 h p.i.) was less than 0.10 % IA/g. For the same molecule, the Tumor-to-blood ratio ([1]; 48 h p.i.) was 364 ± 67, the Tumor-to-kidney ratio ([1]; 48 h p.i.) was 8.7 ± 1.8 and the Tumor-to-liver ratio ([1]; 48 h p.i.) was 72 ± 11. The “AUCTu(0→48 h)-to-AUCKi(0→48 h) ratio” value (LNCaP tumor-bearing mice; 0.05 nmol) was 0.89 ± 0.25, the “AUCTu(0→48 h)-to-AUCKi(0→48 h) ratio” value (LNCaP tumor-bearing mice; 1.0 nmol) was 1.2 ± 0.2 and the “AUC0→48h, Kidneys” value (LNCaP tumor-bearing mice; LNCaP model, 0.05 nmol) was 815 ± 103 % IA/g*h. For the same molecule, the “AUC0→48h, LNCaP tumor” value (LNCaP tumor-bearing mice; LNCaP model, 0.05 nmol) was 721 ± 115 % IA/g*h, the “Increase of tumor-to-kidney AUC0→48 h ratio for high vs low molar amount of injected ligand” value (LNCaP tumor-bearing mice; LNCaP model, 1.0 nmol vs 0.05 nmol) was 1.3 fold and the “AUC0→48h, Kidneys” value (LNCaP tumor-bearing mice; LNCaP model, 1.0 nmol) was 349 ± 21 % IA/g*h. For the same molecule, the “AUC0→48h, LNCaP tumor” value (LNCaP tumor-bearing mice; LNCaP model, 1.0 nmol) was 402 ± 38 % IA/g*h, the “Tissue distribution, Blood” value (LNCaP tumor-bearing mice; [2]) was 1.6 ± 0.3 % IA/g and the “Tissue distribution, Bone” value (LNCaP tumor-bearing mice; [2]) was 0.63 ± 0.33 % IA/g. For the same molecule, the “Tissue distribution, Heart” value (LNCaP tumor-bearing mice; [2]) was 0.61 ± 0.13 % IA/g, the “Tissue distribution, Intestines” value (LNCaP tumor-bearing mice; [2]) was 0.33 ± 0.03 % IA/g and the “Tissue distribution, Kidneys” value (LNCaP tumor-bearing mice; [2]) was 58 ± 10 % IA/g. The “Tissue distribution, LNCaP tumor” value (LNCaP tumor-bearing mice; [2]) was 18 ± 3 % IA/g, the “Tissue distribution, Liver” value (LNCaP tumor-bearing mice; [2]) was 1.3 ± 0.1 % IA/g and the “Tissue distribution, Lung” value (LNCaP tumor-bearing mice; [2]) was 1.4 ± 0.2 % IA/g. The “Tissue distribution, Muscle” value (LNCaP tumor-bearing mice; [2]) was 1.5 ± 1.9 % IA/g, the “Tissue distribution, Salivary glands” value (LNCaP tumor-bearing mice; [2]) was 0.59 ± 0.14 % IA/g and the “Tissue distribution, Spleen” value (LNCaP tumor-bearing mice; [2]) was 1.5 ± 0.4 % IA/g. For the same molecule, the “Tissue distribution, Stomach” value (LNCaP tumor-bearing mice; [2]) was 0.32 ± 0.06 % IA/g, the Tumor-to-blood ratio (LNCaP tumor-bearing mice; [2]) was 12 ± 1 and the Tumor-to-kidney ratio (LNCaP tumor-bearing mice; [2]) was 0.32 ± 0.03. It also gave a Tumor-to-liver ratio (LNCaP tumor-bearing mice; [2]) of 14 ± 1.
